From patent publication US9969732B2, “Tetrahydroisoquinoline estrogen receptor modulators and uses thereof” (Genentech, Inc., priority 2016, dated 2018) come the findings set out here.

For this test, the target named is T1, ER-alpha (WT) (Homo sapiens, UniProt P03372).
T1 construct: endogenous in cells; host or cells: MCF7 breast cancer cells
T1 sequence (P03372 1-595): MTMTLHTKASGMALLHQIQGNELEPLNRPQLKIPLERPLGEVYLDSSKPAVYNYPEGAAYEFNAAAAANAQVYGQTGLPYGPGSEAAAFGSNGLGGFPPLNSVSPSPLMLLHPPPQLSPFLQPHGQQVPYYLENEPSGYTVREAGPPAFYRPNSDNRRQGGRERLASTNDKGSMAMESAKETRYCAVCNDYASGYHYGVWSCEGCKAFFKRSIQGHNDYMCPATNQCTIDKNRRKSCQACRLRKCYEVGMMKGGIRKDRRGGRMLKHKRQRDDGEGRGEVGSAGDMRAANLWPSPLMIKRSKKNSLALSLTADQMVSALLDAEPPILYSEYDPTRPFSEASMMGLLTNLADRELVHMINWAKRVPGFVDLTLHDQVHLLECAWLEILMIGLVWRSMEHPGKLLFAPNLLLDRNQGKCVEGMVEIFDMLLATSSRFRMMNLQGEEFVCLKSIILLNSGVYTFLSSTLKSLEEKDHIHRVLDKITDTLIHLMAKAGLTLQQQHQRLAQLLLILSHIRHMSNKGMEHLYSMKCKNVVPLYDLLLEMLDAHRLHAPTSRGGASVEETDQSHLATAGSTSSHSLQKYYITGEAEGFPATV
The experiment in a line: Breast Cancer Cell ERa High Content Fluorescence Imaging Degradation Assay (MCF7 HCS). Format: cell-based. To be noted: MCF7 breast cancer cells, 4 hours incubation; for EC50: inflexion point of curve; for ERalpha (WT) MCF7 HCS (S inf): plateau of the maximal effect, DMSO and Fulvestrant define 0% and 100% changes in ESR1.

For the compound `CC1Cc2c(ccc3c2cnn3CC(C)(C)F)C(c2c(F)cc(OCCN3CC(CF)C3)cc2F)N1CC(C)(C)F` (centres unmarked) [Example 122, 6-(2,6-difluoro-4-(2-(3-(fluoromethyl)azetidin-1-yl)ethoxy)phenyl)-3,7-bis(2-fluoro-2-methylpropyl)-8-methyl-6,7,8,9-tetrahydro-3H-pyrazolo[4,3-f]isoquinoline], the midpoint of the response, the EC50, lay at 25.2 nM and the “ERalpha (WT) MCF7 HCS (S inf)” value is −62%.
Take `C[C@@H]1CN(S(C)(=O)=O)[C@@H](c2ccc(OCCN3CC(CF)C3)cc2)c2ccc(O)cc21` (single isomer, unassigned) [Example 119]: the EC50 – broadly, the concentration giving half of the maximal effect – was ≥ 100 nM.
As for `C[C@@H]1CN(S(C)(=O)=O)[C@H](c2ccc(OCCN3CC(CF)C3)cc2)c2ccc(O)cc21` [Example 120, (1R,4S)-1-[4-[2-[3-(fluoromethyl)azetidin-1-yl]ethoxy]phenyl]-4-methyl-2-methylsulfonyl-3,4-dihydro-1H-isoquinolin-6-ol], the EC50 was found to be 25.9 nM and the “ERalpha (WT) MCF7 HCS (S inf)” value is given as −60%.
Turning to `C[C@H]1Cc2cc(O)ccc2[C@H](c2ccc(OCCN3CC(CF)C3)cc2)N1CC(F)(F)CO` [Example 165, (1S,3S)-2-(2,2-Difluoro-3-hydroxypropyl)-1-(4-(2-(3-(fluoromethyl)azetidin-1-yl)ethoxy)phenyl)-3-methyl-1,2,3,4-tetrahydroisoquinolin-6-ol], a half-maximal response (EC50) required 0.96 nM and the “ERalpha (WT) MCF7 HCS (S inf)” value is recorded as −101%.
In the same order, the values of `CC(C)(F)CN1CCc2cc(O)ccc2[C@@H]1c1ccc(OCCN2CC(CF)C2)cc1` [Example 105, (S)-2-(2-fluoro-2-methylpropyl)-1-(4-(2-(3-(fluoromethyl)azetidin-1-yl)ethoxy)phenyl)-1,2,3,4-tetrahydroisoquinolin-6-ol] are 0.146 nM and −98%.
In the same order, the values of `C[C@H]1Cc2cc(S(N)(=O)=O)ccc2[C@H](c2ccc(OCCN3CC(CF)C3)cc2)N1CC(F)(F)CO` (single isomer, unassigned) [Example 174] are 63 nM and −50%.
In the same order, the values of `C[C@@H]1CCN(CCOc2ccc([C@@]3(C)c4ccc(O)cc4CCN3CC(C)(C)F)cc2)C1` [Example 125, (S)-2-(2-fluoro-2-methylpropyl)-1-methyl-1-(4-(2-((R)-3-methylpyrrolidin-1-yl)ethoxy)phenyl)-1,2,3,4-tetrahydroisoquinolin-6-ol] are 7.4 nM and −57%.
As for `C[C@@H](CN1CCc2cc(O)ccc2[C@]1(C)c1ccc(OCCN2CC(CF)C2)cc1)C(=O)O` [Example 135, (S)-3-((S)-1-(4-(2-(3-(fluoromethyl)azetidin-1-yl)ethoxy)phenyl)-6-hydroxy-1-methyl-3,4-dihydroisoquinolin-2(1H)-yl)-2-methylpropanoic acid], the EC50 was ≥ 100 nM.
Regarding `C[C@@H]1Cc2cc(CO)ccc2[C@@H](c2ccc(NC3CN(CCCF)C3)cc2)N1CC(F)(F)F` (single isomer, unassigned) [Example 170], a half-maximal response (EC50) required 0.088 nM and the “ERalpha (WT) MCF7 HCS (S inf)” value is given as −100%.
The matching figures for `C[C@@H]1Cc2cc(O)ccc2[C@@H](c2ccc(OCCN3CC(CF)C3)cc2)N1S(C)(=O)=O` [Example 116, (1R,3R)-1-[4-[2-[3-(fluoromethyl)azetidin-1-yl]ethoxy]phenyl]-3-methyl-2-methylsulfonyl-3,4-dihydro-1H-isoquinolin-6-ol]: 0.3 nM and −93%.
Regarding `C[C@@H]1Cc2cc(C(C)(C)O)ccc2[C@@H](c2ccc(OCCN3CC(CF)C3)cc2)N1CC(F)(F)F` [Example 161, 2-((1R,3R)-1-(4-(2-(3-(Fluoromethyl)azetidin-1-yl)ethoxy)phenyl)-3-methyl-2-(2,2,2-trifluoroethyl)-1,2,3,4-tetrahydroisoquinolin-6-yl)propan-2-ol], the EC50 came to 11 nM and the “ERalpha (WT) MCF7 HCS (S inf)” value is −82%.
In the same order, the values of `FCC1CN(CCOc2ccc([C@@H]3c4ccc(-c5cn[nH]c5)cc4CCN3CC(F)(F)F)cc2)C1` [Example 146, (1R)-1-[4-[2-[3-(fluoromethyl)azetidin-1-yl]ethoxy]phenyl]-6-(1H-pyrazol-4-yl)-2-(2,2,2-trifluoroethyl)-3,4-dihydro-1H-isoquinoline] are 0.56 nM and −95%.
For the compound `C[C@H]1Cc2cc(CO)ccc2[C@H](c2ccc(OCCN3CC(CF)C3)cc2)N1CC(F)(F)F` (single isomer, unassigned) [Example 160], the response was half-maximal at 19 nM (EC50) and the “ERalpha (WT) MCF7 HCS (S inf)” value was −88%.
The matching figures for `C[C@@H]1Cc2cc(O)ccc2[C@@H](c2ccc(OCCN3CC(CF)C3)cc2)N1CC(F)(F)F` (single isomer, unassigned) [Example 132]: 0.011 nM and −97%.
With `CC1(c2ccc(OCCN3CC(CF)C3)cc2)c2ccc(O)cc2CCN1S(C)(=O)=O` (centres unmarked) [Example 111, 1-[4-[2-[3-(fluoromethyl)azetidin-1-yl]ethoxy]phenyl]-1-methyl-2-methylsulfonyl-3,4-dihydroisoquinolin-6-ol], the EC50 is ≥ 100 nM.
For the compound `C[C@@]1(c2ccc(OCCN3CC(CF)C3)cc2)c2ccc(O)cc2CCN1CC(F)(F)F` [Example 113, (1R)-1-[4-[2-[3-(fluoromethyl)azetidin-1-yl]ethoxy]phenyl]-1-methyl-2-(2,2,2-trifluoroethyl)-3,4-dihydroisoquinolin-6-ol], the midpoint of the response, the EC50, lay at 0.0608 nM and the “ERalpha (WT) MCF7 HCS (S inf)” value is −99%.
As for `CS(=O)(=O)N1CCc2cc(O)ccc2[C@H]1c1ccc(OCCN2CC(CF)C2)cc1` (single isomer, unassigned) [Example 110], the response was half-maximal at 8.28 nM (EC50) and the “ERalpha (WT) MCF7 HCS (S inf)” value is −85%.
In the same order, the values of `C[C@@H]1Cc2cc(C(=O)O)ccc2[C@@H](c2ccc(OCCN3CC(CF)C3)cc2)N1CC(F)(F)F` (single isomer, unassigned) [Example 164] are 1.3 nM and −100%.
Consider `FCC1CN(CCOc2ccc([C@H]3c4ccc(-c5cc[nH]n5)cc4CCN3CC(F)(F)F)cc2)C1` [Example 151, (1S)-1-[4-[2-[3-(fluoromethyl)azetidin-1-yl]ethoxy]phenyl]-6-(1H-pyrazol-3-yl)-2-(2,2,2-trifluoroethyl)-3,4-dihydro-1H-isoquinoline], for which the EC50 is ≥ 100 nM.
In the case of `CC(C)(F)CN1CCc2cc(O)ccc2[C@H]1c1ccc(OCCN2CC(CF)C2)cc1` [Example 106, (R)-2-(2-fluoro-2-methylpropyl)-1-(4-(2-(3-(fluoromethyl)azetidin-1-yl)ethoxy)phenyl)-1,2,3,4-tetrahydroisoquinolin-6-ol], the half-maximal effective concentration (EC50) came out at 0.042 nM and the “ERalpha (WT) MCF7 HCS (S inf)” value is given as −101%.
In the same order, the values of `Oc1ccc2c(c1)CCN(CC(F)(F)F)[C@H]2c1c(F)cc(OCCN2CC(CF)C2)cc1F` [Example 133, (1R)-1-[2,6-difluoro-4-[2-[3-(fluoromethyl)azetidin-1-yl]ethoxy]phenyl]-2-(2,2,2-trifluoroethyl)-3,4-dihydro-1H-isoquinolin-6-ol] are 17 nM and −90%.
